The EC50 is the midpoint of the concentration-response curve.

From PMC5750238 (2018) come the findings set out here.

Assay [1] has as its system Mango construct (RNA, aptamer) GGGAGAUCGUCCUAAGCGCUUUCGAGCGUUUAGCCUGGGUCGCGAAGGGACGGUGCGGAGAGGAGAGCGACUCAGGGAUGGUGAAGCCUCCACGCCAUCGACGGUCUCCCGAUACUCAUCGCGACUGAAGGAGGCACGGUCGGCAUUGUACUUCGGUACGAUGCGCAAGCGACUUCGGUCGUUUGCCGAUGGGUAUC
Briefly: fluorescence activation. Particulars: 125 mM KCl, 1 mM MgCl2; 1x TB assembly buffer; EC50 given as N/A; titration to 2 µM.

The subject of assay [2] is 2H-AE construct (RNA, other) GGAAUUCAGGAGCUCGGGAGCGUCCACUGCUCCUGAGCGCUCCAGUGGACGGAGCCCUGGUGAAGCCUCCACGCCAGGUCCUGGAUUCCGCAUGUAUCGAGGACUGAAGGAGGCACGGUCCCACGGGCUCCGAGACGUGGAGUCCGUGUCCGCACGUCUCGCGGAUCGAUGCAUGC
Briefly: fluorescence activation. Particulars: 125 mM KCl, 1 mM MgCl2; 1x TB assembly buffer; no fluorescence activation.

Assay [3] relates to Spinach construct (RNA, aptamer) GGGAGAUGCUCCCAGUUACAUUCGUGUAGCUGGCCGUGCGGUAAGGACGGGUCCCUAGCUAAUUCGUUAGUUAGGUUGAGUAGAGUGUGAGACCGUACGGGCUGGUGAAGCCUCCACGCCAGCGAGCGUCUCCCGCAUGGCAACGCGACUGAAGGAGGCACGGUCGGCCAUCGGUUUCGACCGGUGGCGGUAGAGCCUUCGGGCUUUACCCGUUGUCAUGC
Briefly: fluorescence titration of RNA with fluorophore. The settings on record: 125 mM KCl, 1 mM MgCl2, 1x TB assembly buffer, 20 nM RNA, apparent.

For assay [4], the system named is Broccoli construct (RNA, aptamer) GGGAGAUGCUCCCAGUUACAUUCGUGUAGCUGGCCGUGCGAGACGGUCGGGUCCAUAGCUAAUUCGUUAGUUAUGUCGAGUAGAGUGUGGGCUCGUACGGGCUGGUGAAGCCUCCACGCCAGCGAGCGUCUCCCGCAUGGCAACGCGACUGAAGGAGGCACGGUCGGCCAUCGGUUUCGACCGGUGGCGGUAGAGCCUUCGGGCUUUACCCGUUGUCAUGC
Briefly: fluorescence titration of RNA with fluorophore. The settings on record: 125 mM KCl, 1 mM MgCl2; 1x TB assembly buffer; 20 nM RNA; fluorophore 1 nM to 2 µM; apparent.

The subject of assay [5] is Mango construct (RNA, aptamer) GGGAGAUCGUCCUAAGCGCUUUCGAGCGUUUAGCCUGGGUCGCGAAGGGACGGUGCGGAGAGGAGAGCGACUCAGGGAUGGUGAAGCCUCCACGCCAUCGACGGUCUCCCGAUACUCAUCGCGACUGAAGGAGGCACGGUCGGCAUUGUACUUCGGUACGAUGCGCAAGCGACUUCGGUCGUUUGCCGAUGGGUAUC
Briefly: fluorescence titration of RNA with fluorophore. Particulars: 125 mM KCl, 1 mM MgCl2; 1x TB assembly buffer; 20 nM RNA; fluorophore 1 nM to 2 µM; apparent.

For `CC1=N/C(=C\c2cc(F)c(O)c(F)c2)C(=O)N1CC(F)(F)F`, the binding result in assay [1] and in assay [2] was “no” throughout. Also, the EC50 in assay [3] (fluorophore 1 nM to 2 µM) was 337.5 nM; in assay [4], 598.9 nM.
As for `CN1C=CC(=CC=Cc2oc3ccccc3[n+]2CC(=O)NCCOCCOCCOCCNC(=O)CCCC[C@@H]2SC[C@@H]3NC(=O)N[C@@H]32)c2ccccc21`, the concentration giving a half-maximal response (EC50) in assay [3] (fluorophore 1 nM to 2 µM (value above range)) stood at 3920 nM; in assay [5], 25.6 nM; in assay [4], 1700 nM.
